In BigSolDB 2.1:

NC(=O)CC[C@H](N)C(=O)O
solubility (mole fraction) (in 2-butanone, 283.15 K): 0.00015
solubility (mole fraction) (in 2-butanone, 288.15 K): 0.00017
solubility (mole fraction) (in 2-butanone, 293.15 K): 0.0002
solubility (mole fraction) (in 2-butanone, 298.15 K): 0.000237
solubility (mole fraction) (in 2-butanone, 303.15 K): 0.000271
solubility (mole fraction) (in 2-butanone, 308.15 K): 0.000301
solubility (mole fraction) (in 2-butanone, 313.15 K): 0.000338
solubility (mole fraction) (in 2-butanone, 318.15 K): 0.000373
solubility (mole fraction) (in 2-butanone, 323.15 K): 0.00041
solubility (mole fraction) (in acetonitrile, 283.15 K): 3.44e-05
solubility (mole fraction) (in acetonitrile, 288.15 K): 6.77e-05
solubility (mole fraction) (in acetonitrile, 293.15 K): 0.000104
solubility (mole fraction) (in acetonitrile, 298.15 K): 0.000138
solubility (mole fraction) (in acetonitrile, 303.15 K): 0.000164
solubility (mole fraction) (in acetonitrile, 308.15 K): 0.000192
solubility (mole fraction) (in acetonitrile, 313.15 K): 0.000225
solubility (mole fraction) (in acetonitrile, 318.15 K): 0.000254
solubility (mole fraction) (in acetonitrile, 323.15 K): 0.000283
solubility (mole fraction) (in ethanol, 283.15 K): 0.000273
solubility (mole fraction) (in ethanol, 288.15 K): 0.000304
solubility (mole fraction) (in ethanol, 293.15 K): 0.000337
solubility (mole fraction) (in ethanol, 298.15 K): 0.000372
solubility (mole fraction) (in ethanol, 303.15 K): 0.000408
solubility (mole fraction) (in ethanol, 308.15 K): 0.000447
solubility (mole fraction) (in ethanol, 313.15 K): 0.000494
solubility (mole fraction) (in ethanol, 318.15 K): 0.000522
solubility (mole fraction) (in ethanol, 323.15 K): 0.000584
solubility (mole fraction) (in ethyl acetate, 283.15 K): 2.94e-05
solubility (mole fraction) (in ethyl acetate, 288.15 K): 5.21e-05
solubility (mole fraction) (in ethyl acetate, 293.15 K): 0.000138
solubility (mole fraction) (in ethyl acetate, 298.15 K): 0.000218
solubility (mole fraction) (in ethyl acetate, 303.15 K): 0.000293
solubility (mole fraction) (in ethyl acetate, 308.15 K): 0.000362
solubility (mole fraction) (in ethyl acetate, 313.15 K): 0.000452
solubility (mole fraction) (in ethyl acetate, 318.15 K): 0.00054
solubility (mole fraction) (in ethyl acetate, 323.15 K): 0.000653
solubility (mole fraction) (in isobutanol, 283.15 K): 5.11e-05
solubility (mole fraction) (in isobutanol, 288.15 K): 0.000112
solubility (mole fraction) (in isobutanol, 293.15 K): 0.000163
solubility (mole fraction) (in isobutanol, 298.15 K): 0.000254
solubility (mole fraction) (in isobutanol, 303.15 K): 0.000348
solubility (mole fraction) (in isobutanol, 308.15 K): 0.000442
solubility (mole fraction) (in isobutanol, 313.15 K): 0.000556
solubility (mole fraction) (in isobutanol, 318.15 K): 0.000662
solubility (mole fraction) (in isobutanol, 323.15 K): 0.000798
solubility (mole fraction) (in methanol, 283.15 K): 9.5e-05
solubility (mole fraction) (in methanol, 288.15 K): 0.000101
solubility (mole fraction) (in methanol, 293.15 K): 0.000114
solubility (mole fraction) (in methanol, 298.15 K): 0.000134
solubility (mole fraction) (in methanol, 303.15 K): 0.000164
solubility (mole fraction) (in methanol, 308.15 K): 0.000205
solubility (mole fraction) (in methanol, 313.15 K): 0.00025
solubility (mole fraction) (in methanol, 318.15 K): 0.000286
solubility (mole fraction) (in methanol, 323.15 K): 0.000347
solubility (mole fraction) (in n-butanol, 283.15 K): 0.000184
solubility (mole fraction) (in n-butanol, 288.15 K): 0.00023
solubility (mole fraction) (in n-butanol, 293.15 K): 0.000291
solubility (mole fraction) (in n-butanol, 298.15 K): 0.00035
solubility (mole fraction) (in n-butanol, 303.15 K): 0.0004
solubility (mole fraction) (in n-butanol, 308.15 K): 0.000458
solubility (mole fraction) (in n-butanol, 313.15 K): 0.000522
solubility (mole fraction) (in n-butanol, 318.15 K): 0.000574
solubility (mole fraction) (in n-butanol, 323.15 K): 0.000635
solubility (mole fraction) (in n-hexane, 283.15 K): 0.000129
solubility (mole fraction) (in n-hexane, 288.15 K): 0.000196
solubility (mole fraction) (in n-hexane, 293.15 K): 0.000263
solubility (mole fraction) (in n-hexane, 298.15 K): 0.000346
solubility (mole fraction) (in n-hexane, 303.15 K): 0.000425
solubility (mole fraction) (in n-hexane, 308.15 K): 0.000494
solubility (mole fraction) (in n-hexane, 313.15 K): 0.000554
solubility (mole fraction) (in n-hexane, 318.15 K): 0.000621
solubility (mole fraction) (in n-hexane, 323.15 K): 0.000681
solubility (mole fraction) (in n-pentanol, 283.15 K): 8.57e-05
solubility (mole fraction) (in n-pentanol, 288.15 K): 0.000109
solubility (mole fraction) (in n-pentanol, 293.15 K): 0.000137
solubility (mole fraction) (in n-pentanol, 298.15 K): 0.000163
solubility (mole fraction) (in n-pentanol, 303.15 K): 0.000245
solubility (mole fraction) (in n-pentanol, 308.15 K): 0.000335
solubility (mole fraction) (in n-pentanol, 313.15 K): 0.000448
solubility (mole fraction) (in n-pentanol, 318.15 K): 0.000556
solubility (mole fraction) (in n-pentanol, 323.15 K): 0.000654
solubility (mole fraction) (in n-propanol, 283.15 K): 8.13e-05
solubility (mole fraction) (in n-propanol, 288.15 K): 0.000115
solubility (mole fraction) (in n-propanol, 293.15 K): 0.000156
solubility (mole fraction) (in n-propanol, 298.15 K): 0.000189
solubility (mole fraction) (in n-propanol, 303.15 K): 0.000227
solubility (mole fraction) (in n-propanol, 308.15 K): 0.000266
solubility (mole fraction) (in n-propanol, 313.15 K): 0.000321
solubility (mole fraction) (in n-propanol, 318.15 K): 0.000375
solubility (mole fraction) (in n-propanol, 323.15 K): 0.000434
solubility (mole fraction) (in sec-butanol, 283.15 K): 5.51e-05
solubility (mole fraction) (in sec-butanol, 288.15 K): 0.000106
solubility (mole fraction) (in sec-butanol, 293.15 K): 0.00017
solubility (mole fraction) (in sec-butanol, 298.15 K): 0.000231
solubility (mole fraction) (in sec-butanol, 303.15 K): 0.000281
solubility (mole fraction) (in sec-butanol, 308.15 K): 0.000353
solubility (mole fraction) (in sec-butanol, 313.15 K): 0.00042
solubility (mole fraction) (in sec-butanol, 318.15 K): 0.000501
solubility (mole fraction) (in sec-butanol, 323.15 K): 0.000593
solubility (mole fraction) (in water, 283.15 K): 0.00356
solubility (mole fraction) (in water, 288.15 K): 0.00409
solubility (mole fraction) (in water, 293.15 K): 0.00471
solubility (mole fraction) (in water, 298.15 K): 0.00533
solubility (mole fraction) (in water, 303.15 K): 0.00595
solubility (mole fraction) (in water, 308.15 K): 0.00682
solubility (mole fraction) (in water, 313.15 K): 0.00811
solubility (mole fraction) (in water, 318.15 K): 0.0097
solubility (mole fraction) (in water, 323.15 K): 0.0121
